The Tmax is the time at which the peak concentration occurs. Usually bioavailability stands for dose-corrected exposure relative to a reference, in per cent.

Series [1] can be described thus: Human Study 1: absolute bioavailability, plasma pharmacokinetics of fospropofol and propofol. The class given is in vivo. The note with it: for Tmax / bioavailability / half-life: male, human, plasma; for half-life: read-out: mean t1/2 of fospropofol (converted). As to the method:
(§1) In human study 1, fospropofol disodium was formulated as a sterile aqueous solution at a concentration of 20 mg/mL. Each vial provided contained 20 mL of solution, suitable for intravenous injection. Fospropofol was administered as a single dose of 400 mg orally, directly into the duodenum by gastroscopy or intravenously over 10 min. In human study 2, fospropofol disodium in capsules (200 mg) or matching placebo was administered orally.
The first study was an absolute bioavailability study of fospropofol conducted at a single center (PRA Health Sciences) in Groningen, Netherlands, as a three-way crossover study. The study enrolled 7 healthy male volunteers between 18 and 45 years of age inclusive, with a body mass index between 18 and 28 kg/m^2. Subjects stayed in the clinical unit for three consecutive periods of 3 days each, with a 3-day washout, between periods. For six subjects, the order of the administration routes was as follows—period 1: PO, period 2: ID, and period 3: IV. For one subject the order of the administration routes was the following—period 1: ID, period 2: IV and period 3: PO. In this study a single dose of 400 mg was administered by each route. Blinding and placebo control was impractical due to the requirement of unsedated endoscopic administration of fospropofol into the duodenum. Safety and overall pharmacodynamic effect was evaluated based on adverse events, vital signs, electrocardiogram (ECG), Modified Observer's Assessment of Alertness/Sedation (OAA/S) score, clinical laboratory tests, and physical examination.
In the first study, 6 mL blood samples were collected following the PO and ID fospropofol treatment periods at times of pre-dose, 5, 10, 20, 30, 45, 60, 90 min and 2, 4, 6 and 9 h post-dose and in the IV fospropofol treatment period at pre-dose and at 5, 10, 15, 20, 30, 45, 60 and 120 min post-dose. In the second study a 6 mL blood sample was collected following each fospropofol PO dose (200, 600, 1,000 and 1,200 mg) at pre-dose, 5, 10, 20, 30, 45, 60, 90 min and 2, 4, 6 and 9 h post-dose. The blood was collected in a sodium heparin vacutainer tube containing 60 mg SOV, inverted approximately eight times to dissolve SOV and placed on dry ice until it was centrifuged at 3,000 rpm for 10 min at 4° C. to harvest plasma. Plasma samples were then stored at −20° C. until analysis.
The parameters were summarized using descriptive statistics.

The nature of series [2]: Human Study 2: single ascending oral dose, plasma pharmacokinetics. The class given is in vivo. As to the method: as §1
A second single ascending dose study was subsequently performed to assess the safety, tolerability, and pharmacokinetics of oral administration of fospropofol as a capsule. This was a double-blind, randomized, crossover, placebo-controlled, single ascending dose study. Ten healthy volunteers were enrolled, 6 males and 4 females between 18 and 45 years of age inclusive with a body mass index between 18 and 28 kg/m^2. Each subject received four ascending oral doses of fospropofol disodium (200, 600, 1,000 and 1,200 mg) and one of placebo. Placebo was administered randomly, in one of the five periods. Subjects stayed in the clinical research unit over 3 days per treatment for five consecutive treatments. […] Pharmacokinetic parameters, safety and pharmacodynamic effect were assessed in a manner similar to that in Study 1 described above. […]

Series [3] is described as follows: Stability in rat plasma at −20° C. The series is classed as in vitro ADME.
Description: The SPE cartridges were conditioned by gravity with methanol and 1.0 M ammonium acetate solution in water. The plasma samples with internal standard were loaded on the cartridges, washed with water and 10% methanol/water and eluted with methanol. The tubes were then evaporated under nitrogen and the residues reconstituted with 50/50 methanol/25 mM ammonium acetate in deionized water. The sample extract was then injected onto a reversed phase HPLC Zorbax Eclipse XDB-C18 column. The separated analytes were detected using tandem mass spectrometry (MS/MS) detection. […] The assays were linear with correlation coefficient of (R^2)>0.99 over the range of 10-2,000 ng/mL for rat plasma and 5-1,000 ng/mL for human plasma.
In brief, 4-[tert-octyl] phenol, (internal standard) was added to the plasma samples (0.05 mL for rat or 0.2 mL for human) and extracted using a 3M Empore C-18-SD 4 mm SPE cartridge (Millipore, Billerica, Mass., USA). […] The final eluants (˜0.3 mL) were diluted with 0.3 mL of water, and injected onto an HPLC system equipped with a C-18 analytical column (5 μm, 150×3.9 mm) and fluorescence detector set at excitation and emission wave lengths of 275 and 310 nm, respectively. […] All rat and human study samples in this study were analyzed without exceeding the stability sample integrity during validation of the methods.

The structures appear in SMILES notation. Read-outs that look alike come from different tables or passages of the source. Some results are limits rather than exact numbers.

Turning to `CC(C)c1cccc(C(C)C)c1OCOP(=O)(O)O` [fospropofol], the “fospropofol Cmax, fold lower than IV” value in series [1] (400 mg ID vs IV) is recorded as approximately 534 fold; in series [1] (400 mg PO vs IV), “approximately 88 fold”. In addition, in series [1] (400 mg PO or ID), the “plasma fospropofol by non-intravenous routes” value is given as “Almost no plasma fospropofol was detected”. For the same molecule, the Tmax in series [1] (other: intraduodenal, 400 mg ID, read-out: Tmax of fospropofol) stood at 10.2 min; in series [1] (400 mg PO, read-out: Tmax of fospropofol) it was 4.8 min. Besides, the bioavailability in series [1] (other: intraduodenal, 400 mg ID, read-out: absolute bioavailability of fospropofol) came out at 0.1%; in series [1] (400 mg PO, read-out: absolute bioavailability of fospropofol), 1%. Moreover, the half-life in series [1] (other: intraduodenal, 400 mg ID) is 16.8 min; in series [1] (400 mg IV), 16.8 min; in series [1] (400 mg PO), 19.2 min. Further, the “fospropofol exposure vs dose” value in series [2] (PO capsules 200-1,200 mg) was “dose related increase”. Further, the “time stable at −20° C. in rat plasma” value in series [3] turned out to be 98 days.

With `CC(C)c1cccc(C(C)C)c1O` [propofol, 2,6-diisopropylphenol], the “bioavailability (F) of propofol based on AUC(0-∞)” value was 37% in series [1] (fospropofol 400 mg ID) and 30% in series [1] (fospropofol 400 mg oral). Moreover, the time of peak concentration (Tmax) in series [1] (other: intraduodenal, fospropofol 400 mg ID) is 10.2 min; in series [1] (fospropofol 400 mg PO), 19.8 min. In addition, the bioavailability in series [1] (po, 400 mg, summary in discussion) was not below 30%. Moreover, the “propofol exposure vs dose” value in series [2] (PO fospropofol capsules 200-1,200 mg) is reported as “dose related increase”. Also, the “time stable at −20° C. in rat plasma” value in series [3] is 65 days.

For the origin of these results see patent US11331271B2, “Buccal, sublingual and intranasal delivery of fospropofol” (The Johns Hopkins University, priority 2016, dated 2022).
